Assays:
telomerase [1] = assay: Telomerase activity by telomere repeat amplification (TRAP) in HeLa cells; format: cell-based, Homo sapiens; parameters: dose or concentration left out as unconfirmed; settings: DKC1- and PARN-depleted HeLa cells, RG7834 or DMSO (FIG. 1D)
Description: Th present inventors have previously shown that in DKC1- or PARN-depleted cells, TERC accumulates in cytoplasmic puncta called “cyTER bodies,” instead of its normal localization to cajal bodies in the nucleus. To investigate whether RG7834 treatment rescued TERC localization to cajal bodies in the nucleus, DKC1- or PARN-depleted cells were treated with RG7834 for 2 days. […] Upon treatment with RG7834, —38% of cells had TERC localized to cajal bodies, which is consistent with the 1.5× increase in TERC levels in these cells. RG7834 treatment also rescued TERC localization to cajal bodies in PARN-depleted cells. In PARN knockdown cells, ˜34% of cells had TERC in cajal bodies, with TERC also mostly being localized to cyTER bodies in these cells. However, upon RG7834 treatment, ˜85% of cells had TERC localized to cajal bodies.
Detection of telomerase activity: Telomerase activity was assessed by Telomere Repeat Amplification Protocol (TRAP). Briefly, cells were lysed in NP-40 buffer at 4° C. for 20 min and centrifuged at 13,000 rpm for 10 min. Telomere extension reactions were performed using 2, 0.5, and 0.125 μg of protein and following products were amplified by PCR. Adenosine triphosphate, labeled on the gamma phosphate group with 32P (Perkin-Elmer, USA) was used for labelling of PCR products. […]

[2] = cited from earlier work
TERC = TERC quantification by qRT-PCR in DKC1_A353V hESCs; format: cell-based, Homo sapiens; settings: for TERC levels: DKC1_A353V hESCs
Excerpt: (§1) Treatment of DKC1_A353V hESCs with RG7834 caused a >15-fold reduction in the 3′-end oligoadenylation of TERC, indicating efficient PAPD5 inhibition in these cells (FIG. 2A).
RNA extraction and Quantitative real-time PCR: Total RNA was isolated using Trizol (Invitrogen) in accordance with the manufacturer's instructions followed by Turbo DNA-free DNase (Invitrogen) treatment. RNA was converted into cDNA using Superscript III First Strand synthesis kit (Invitrogen) following manufacturer's instructions. Real-time PCR was performed using Evagreen master mix (Lambda Biotech, St. Louis, Mo.) on a StepOne Plus instrument DNase treatment (Thermo Fisher Scientific). For TERC analysis, Brilliant II 1-step qRT-PCR master mix (Agilent, Santa Clara, Calif.) was used following manufacturer's instructions. Reactions were performed in triplicates with 100 ng of RNA per reaction and used gene-specific (for/rev) primers were as follows: […]

HeLa cells = assay: Toxicity in RG7834-treated HeLa cells; format: cell-based, Homo sapiens; settings: duration of the experiments
DKC1_A353V hESCs [3] = assay: Colony forming culture assay of definitive hematopoietic progenitors; format: cell-based, Homo sapiens; settings: day 28 of differentiation, DKC1_A353V cells, different concentrations
Excerpt: Because bone marrow failure is the leading cause of death in DC, the present inventors wanted to analyze the consequences of RG7834 treatment in DKC1_A353V cells during definitive hematopoietic differentiation. There are no animal models that faithfully recapitulate the hematopoietic defects observed in patients harboring pathogenic mutations in DKC1 or PARN; therefore, the present inventors followed established protocols of hESC differentiation into hematopoietic lineages. These protocols recapitulate, in vitro, the major aspects of blood development in vivo, a strategy shown to accurately model key aspects of DC. A schematic of the protocol is depicted in FIG. 6. […] These observations provide compelling evidence that chemical inhibition of PAPD5, in addition to rescuing telomerase function, is sufficient to increase definitive, multilineage, hematopoietic potential in DKC1_A353V mutants.
Colony forming culture assays: Colony assays were performed using MethoCult H4034 Optimum (StemCell Technologies, Vancouver, Canada). […] Cells were maintained in 5% CO2 and 5% O2 incubator for 8 days and then placed into 1 ml of MethoCult in which the colonies forming were measured after 12 days. […]

DKC1_A353V hESCs [4] = assay: Toxicity in DKC1_A353V hESCs (NANOG qRT-PCR, EdU incorporation); format: cell-based, Homo sapiens; settings: concentrations indicated, entire duration (60 days)
Description: FIG. 5. No detectable RG7834 toxicity in hESCs. (A) Representative immunoblot analysis of γH2AX in DKC1_A353V hESCs treated with different concentrations of RG7834 (indicated in the figure). Positive control: Etoposide 50 nM. Actin is shown as a loading control. (B) Quantification of NANOG by qRT-PCR in DKC1_A353V hESCs treated with DMSO or different concentrations of RG7834 (as indicated) for 60 days. (C) Flow cytometry analysis of EdU incorporation with DNA content (DAPI) in DKC1_A353V hESCs, treated with DMSO or 5 μM of RG7834 for 60 days. Quantification of active proliferating cells (EdU positive) is indicated. (D) MA plot for the analysis of RNA-sequencing experiments between DMSO or RG7834 treated DKC1_A353V hESCs. No significant differences in gene expression were found.
The present inventors investigated if treatment with RG7834 was sufficient to reduce DNA damage signaling arising from eroded telomeres, a hallmark of DC.

telomerase [5] = assay: Telomerase activity by TRAP in DKC1_A353V hESCs; format: cell-based, Homo sapiens; settings: different concentrations
Description: as §1
Detection of telomerase activity: Telomerase activity was assessed by Telomere Repeat Amplification Protocol (TRAP). Briefly, cells were lysed in NP-40 buffer at 4° C. for 20 min and centrifuged at 13,000 rpm for 10 min. Telomere extension reactions were performed using 2, 0.5, and 0.125 μg of protein and following products were amplified by PCR. Adenosine triphosphate, labeled on the gamma phosphate group with 32P (Perkin-Elmer, USA) was used for labelling of PCR products. TRAP was performed in accordance with the manufacturer's instructions (TRAPeze, Millipore Sigma, Burlington, Mass.). Samples were run in 9% polyacrylamide gel in 0.5× TBE buffer for 3 hr at 250V. Gel was dried at 80° C. for 30 min and exposed to Carestream BioMax MR film (Kodak, Rochester, N.Y.).

COCCCOc1cc2c(cc1OC)-c1cc(=O)c(C(=O)O)cn1[C@H](C(C)C)C2 [RG7834]
telomerase activity (telomerase [1]): increase telomerase activity | activity in cell culture against the HPV B infection [2]: highly active | TERC levels (TERC; 4 days of treatment): significant increase in TERC levels | TERC levels (TERC; continuous treatment up to 30 days, different concentrations): sustained up to 30 days | TERC levels in the stem cell model of DC (TERC; stem cells carrying disease-causing DKC1 mutations): partially rescued TERC levels | toxicity in RG7834-treated cells (HeLa cells): No cellular toxicity was observed | definitive hematopoietic colony potential (DKC1_A353V hESCs [3]): significantly increased the hematopoietic potential | toxicity associated with RG7834 treatment (DKC1_A353V hESCs [4]): no toxicity associated with RG7834 treatment was detected | telomerase activity (telomerase [5]): noticeable rise in telomerase activity
